Data from article PMC3063246, “Corticotropin Releasing Factor-Induced CREB Activation in Striatal Neurons Occurs via a Novel Gβγ Signaling Pathway” (PLoS ONE, 2011).
“Also recorded” adds a separate entry of the source. Where two headings read alike, the source gives them in different places. No end group written: not given here.

Tests used:
[1] = test system: CRF-induced CREB phosphorylation in striatal neurons; experiment: Block of CRF-induced CREB phosphorylation; type: cell-based, rat
[2] = test system: Akt/PKB; settings: cited from earlier work
Description: (§1) Supplement pone.0018114.s002.xlsx, sheet "Sheet1" | column: Target (notes)

[3] = test system: mGluR1/5 mediated calcium transienst; settings: 5 mM as printed; ref unpublished observations; cited from earlier work
Description: as §1

[4] = biological target: CRFR1; parameters: method as in 5 sources, ref 26 = [26]; PMID 9918582; 26 Perrin MH Sutton SW Cervini LA Rivier JE Vale WW 1999 Comparison of an agonist, urocortin, and an antagonist, astressin, as radioligands for characterization of corticotropin-releasing factor recep ||| ref [73] (a number printed in a supplementary file, which may have a reference list of its own: not looked up in the article's list) ||| ref [74] (a number printed in a supplementary file, which may have a reference list of its own: not looked up in the article's list) ||| ref [75] (a number printed in a supplementary file, which may have a reference list of its own: not looked up in the article's list) ||| ref [76] (a number printed in a supplementary file, which may have a reference list of its own: not looked up in the article's list); settings: cited from earlier work
[5] = biological target: CRFR2; settings: cited from earlier work
Description: as §1

[6] = test system: STR-induced CREB phosphorylation; experiment: Block of stressin-1-induced CREB phosphorylation; type: cell-based, rat; settings: CP154526 100 nM; stressin-1 70 nM, 15 min
[7] = test system: depolarization-induced CREB phosphorylation; parameters: method as in 3 sources, ref 36 = [36]; PMID 11226322; doi:10.1073/pnas.051634198; 36 Wu GY Deisseroth K Tsien RW 2001 Activity-dependent CREB phosphorylation: convergence of a fast, sensitive calmodulin kinase pathway and a slow, less sensitive mitogen-activated protein kinase path ||| ref [36] (a number printed in a supplementary file, which may have a reference list of its own: not looked up in the article's list) ||| ref [71] (a number printed in a supplementary file, which may have a reference list of its own: not looked up in the article's list); settings: 2 µM; cited from earlier work
[8] = test system: ISO-induced cAMP accumulation; experiment: Block of ISO-induced cAMP accumulation; type: cell-based, rat; settings: SQ22536 90 µM; ISO 10 µM; IBMX 75 µM
[9] = test system: PKA; settings: cited from earlier work
Description: as §1

[10] = test system: CREB phosphorylation in cultured striatal neurons; type: cell-based, rat
[11] = test system: cAMP in cultured striatal neurons; experiment: cAMP assay (Parameter cAMP kit) in cultured striatal neurons; type: cell-based, rat; settings: IBMX 75 µM
[12] = test system: CREB phosphorylation in cultured striatal neurons; settings: ISO via a Gαs pathway in striatal neurons; cited from earlier work
Experimental: To test for a Gβγ-dependent mechanism in CRF-induced CREB phosphorylation, we utilized the Gβγ-specific inhibitor gallein (75 µM). […] To ensure that the effect of gallein was specific to CRF and not dampening all G-protein signaling, we stimulated our neurons with ISO (10 µM) in the presence of gallein. […] Indeed, this was in fact the ...

[13] = test system: PI3K; settings: 100 nM; cited from earlier work
Description: as §1

[14] = biological target: CRF receptor 1 (UniProt P34998); settings: cited from earlier work
Sequence of CRF receptor 1 (P34998 24-415): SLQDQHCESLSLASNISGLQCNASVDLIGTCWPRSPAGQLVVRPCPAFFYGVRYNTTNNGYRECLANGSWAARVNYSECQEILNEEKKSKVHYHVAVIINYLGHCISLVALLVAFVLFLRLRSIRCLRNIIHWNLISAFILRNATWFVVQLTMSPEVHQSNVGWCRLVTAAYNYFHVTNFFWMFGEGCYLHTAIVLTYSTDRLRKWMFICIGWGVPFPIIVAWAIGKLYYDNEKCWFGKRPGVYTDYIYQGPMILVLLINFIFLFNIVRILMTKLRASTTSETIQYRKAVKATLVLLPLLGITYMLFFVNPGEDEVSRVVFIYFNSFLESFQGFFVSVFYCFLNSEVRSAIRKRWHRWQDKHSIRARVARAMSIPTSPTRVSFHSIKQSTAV

[15] = test system: depolarization-induced CREB phosphorylation; type: cell-based
[16] = test system: total CREB in cultured striatal neurons; experiment: Immunocytochemistry of total CREB; type: cell-based, rat; settings: CRF 40 nM, 15 min, vs vehicle; P = 0.67, Student's two-tailed T-test
[17] = test system: CREB in cerebellar and hippocampal neurons; settings: cited from earlier work
Description: Separate from CREB/MAPK signaling, CRF also affects the activity of various other kinases, second messengers, ion channels and neurotransmitter receptors [45]–[51]. This diversity in cellular effects is not surprising when one considers the ability of CRF ...

[18] = test system: rewarding effects of drugs of abuse / sucrose reward; settings: cited from earlier work
Description: Human individuals with a history of chronic stress are more likely to become addicts, and previously abstinent addicts are more likely to relapse following exposure to an acute stressor [1]–[3]. […] And while research thus far has focused on the NAc, CRF neurotransmission is also an essential component to connectivity in the dorsal striatum [19]–[22].

[19] = inhibitor 5 µM, 30 min prior and concurrently, CRF 15 min
[20] = inhibitor 100 nM, 30 min prior and concurrently, CRF 15 min
[21] = inhibitor 500 nM, 30 min prior and concurrently, CRF 15 min, data not shown
[22] = inhibitor 1 µM, 30 min prior and concurrently, CRF 15 min, data not shown
[23] = inhibitor 10 µM, 30 min prior and concurrently, CRF 15 min

In the case of `CCN(CC)CCCCN1c2ccccc2Oc2ccc(Cl)cc21` [10-DEBC], the “effect on CRF-induced CREB phosphorylation” value [1, 19] is given as “failed to affect CRF-induced CREB phosphorylation” and the IC50 [2] is given as 2000 to 6000 nM.
In the case of `CC(=O)OCOC(=O)CN(CC(=O)OCOC(C)=O)c1ccccc1OCCOc1ccccc1N(CC(=O)OCOC(C)=O)CC(=O)OCOC(C)=O` [BAPTA-AM], the “effect on CRF-induced CREB phosphorylation” value [1, 19] is listed as “failed to block CRF-induced CREB phosphorylation; also recorded: not affected” and the “effect on mGluR1/5 mediated calcium transients” value [3] is listed as “Calcium (5 mM prevents mGluR1/5 mediated calcium transienst)”.
In the case of `CCCCN(CC)c1nc(C)nc2c1c(C)cn2-c1c(C)cc(C)cc1C` [CP154526], the “effect on CRF-induced CREB phosphorylation” value [1, 20] is given as “eliminated CRF-induced CREB phosphorylation; also recorded: blocked”, the Ki [4] is given as 2.7 nM and the Ki [5] is given as over 10000 nM. For the same compound, the “effect on STR-induced CREB phosphorylation” value [6] was “blocked”.
For `Cc1cncc2cccc(S(=O)(=O)N3CCCNC[C@@H]3C)c12` [H-1152], the “effect on CRF-induced CREB phosphorylation” value [1, 21] was “failed to affect CRF-induced CREB phosphorylation”.
For `COc1ccc(S(=O)(=O)N(CCO)c2ccccc2CN(C)C/C=C/c2ccc(Cl)cc2)cc1` [KN-93], the “effect on CRF-induced CREB phosphorylation” value ([1]; inhibitor 2 µM, 30 min prior and concurrently, CRF 15 min) is listed as “had no effect on CRF-induced CREB phosphorylation; also recorded: did not affect CRF-induced CREB phosphorylation” and the “effect on depolarization-induced CREB phosphorylation” value [7] is listed as “blocks depolarization-induced CREB phosphorylation”.
For `CCCCCCOC(=O)[C@]1(O)C[C@@H]2O[C@@]1(C)n1c3ccccc3c3c4c(c5c6ccccc6n2c5c31)C(=O)NC4` [KT5720], the “effect on CRF-induced CREB phosphorylation” value [1, 22] was “failed to eliminate CRF-induced CREB phosphorylation”.
In the case of `COc1cccc(-c2cc(=O)c3ccccc3o2)c1N` [PD98059], the “effect on CRF-induced CREB phosphorylation” value ([1]; inhibitor 25 µM, 30 min prior and concurrently, CRF 15 min, data not shown) is reported as “yielded a similar result”.
With `Nc1ncnc2c1ncn2C1CCCO1` (stereo not shown) [SQ22536] the “effect on CRF-induced CREB phosphorylation” value ([1]; inhibitor 90 µM, 30 min prior and concurrently, CRF 15 min) was “had no effect on CRF-induced CREB phosphorylation; also recorded: failed to affect CRF-induced CREB phosphorylation” and the “effect on ISO-induced cAMP formation” value [8] was “completely blocked ISO-induced cAMP accumulation; also recorded: completely blocked ISO-induced cAMP formation”.
With `N#CC(=C(/N)Sc1ccccc1N)/C(C#N)=C(/N)Sc1ccccc1N` [U0126] the “effect on CRF-induced CREB phosphorylation” value [1, 23] was “blocked CRF-induced CREB phosphorylation”.
In the case of `CCN(CC)CC.Nc1ncnc2c1ncn2[C@@H]1O[C@@H]2COP(O)(=S)O[C@H]2[C@H]1O` (stereo partly shown) [cAMPS-Rp, triethylammonium salt], the “effect on CRF-induced CREB phosphorylation” value [1, 23] is given as “failed to eliminate CRF-induced CREB phosphorylation” and the EC50 [9] is given as 11000 to 16000 nM.
With `C=C[C@@]1(C)CC(=O)[C@]2(O)[C@@]3(C)[C@@H](O)CCC(C)(C)[C@@H]3[C@H](O)[C@H](OC(C)=O)[C@@]2(C)O1` [forskolin] the CREB phosphorylation ([10]; AC agonist, 25 µM) was “CREB phosphorylation stimulated”.
For `CC(C)NCC(O)c1ccc(O)c(O)c1` (stereo not shown) [isoproterenol], the cAMP concentration ([11]; ISO 10 µM, 15 min, positive control) is given as “significant increase in cAMP” and the CREB phosphorylation [12] is given as “leads to CREB phosphorylation”.
With `COC(=O)C1=C(C)NC(C)=C(C(=O)OC)C1c1ccccc1[N+](=O)[O-]` [nifedipine] the “effect on CRF-induced CREB phosphorylation” value [1, 19] was “had no effect on CRF-induced CREB phosphorylation; also recorded: not affected”.
For `COC[C@H]1OC(=O)c2coc3c2[C@@]1(C)C1=C(C3=O)[C@@H]2CCC(=O)[C@@]2(C)C[C@H]1OC(C)=O` [wortmannin], the “effect on CRF-induced CREB phosphorylation” value [1, 21] is listed as “failed to affect CRF-induced CREB phosphorylation” and the PI3K inhibition [13] is listed as “PI3K (100 nM inhibits PI3K)”.
In the case of “Corticotropin releasing factor (from UniProt P06850)”, the Kd [14] is given as 7.5 nM.
For “PKI, 14–22 amide: cell permeable peptide PKA inhibitor (SGRTGRRNA-NH2; not fully specified (N-terminus); also: myristoylated, site not given here; UniProt P61925 14-22, looked up, fragment)”, the “effect on CRF-induced CREB phosphorylation” value [1, 22] is given as “failed to eliminate CRF-induced CREB phosphorylation” and the Ki [9] is given as 36 nM.
In the case of antisauvagine-30, the “effect on CRF-induced CREB phosphorylation” value [1, 20] is given as “failed to block CRF-induced CREB phosphorylation; also recorded: had no effect on CRF-induced CREB phosphorylation”, the Kd [4] is given as 154 nM and the Kd [5] is given as 1.4 nM.
For astressin, the “effect on CRF-induced CREB phosphorylation” value ([1]; inhibitor 50 nM, 30 min prior and concurrently, CRF 15 min) is given as “completely abolished CRF-induced CREB phosphorylation; also recorded: blocked”, the Ki [4] is given as 1.6 to 2 nM and the Ki [5] is given as 1.5 to 2.8 nM.
With cholera toxin [CTX] the “effect on 60 mM K+ depolarization-induced (MAPK-dependent) CREB phosphorylation” value [15] was “had no effect on MAPK-dependent CREB phosphorylation; also recorded: unaffected”, the “effect on CRF-induced CREB phosphorylation” value [1] was “blocked CRF-induced CREB phosphorylation; also recorded: complete block of CRF-induced CREB phosphorylation” and the “pCREB after toxin alone” value [10] was “transient increase in pCREB on its own”. The “pCREB signal after toxin alone” value [10] was 2809.7±104.5.
For corticotropin releasing factor [CRF], the “total CREB staining” value [16] is given as “had no effect on total CREB staining; also recorded: showed no change in total CREB staining”, the “binding affinity of CRF for CRFR1” value [4] is given as 5 to 10 nM and the cAMP concentration ([11]; CRF 40 nM, time course of pCREB) is given as “failed to induce any measurable increase in cAMP concentration”. For the same compound, the “cAMP formation in the presence of MβCD” value ([11]; CRF 4 µM, 15 min, MβCD 10 mM) was “increased cAMP concentrations; also recorded: significant increase in cAMP formation”, the “cAMP formation in the presence of MβCD relative to isoproterenol” value ([11]; CRF 4 µM, 15 min, MβCD 10 mM) was “not to the levels seen with isoproterenol” and the cAMP accumulation ([11]; CRF, various concentrations up to and including 400 nM, 15 min) was “failed to increase cAMP accumulation; also recorded: failed to induce a significant accumulation of cAMP”. For the same compound, the CREB activation [17] was “activate CREB”, the “effect on incentive salience of a sucrose reward” value ([18]; CRF acting in NAc) was “enhances the incentive salience of a sucrose reward” and the “effect on rewarding effects of drugs of abuse” value [18] was “potentiate the rewarding effects of drugs of abuse”. The “time constant τ of CRF-induced CREB phosphorylation” value ([10]; 40 nM CRF, time course) was about 3.5 min, the CREB phosphorylation ([10]; CRF 40 nM, 15 min, vs vehicle (NS), p<0.0001, ~25 cells per group) was “significantly increased CREB phosphorylation; also recorded: exhibited increased CREB phosphorylation” and the “share of striatal neurons with shift in pCREB fluorescence intensity” value ([10]; CRF 40 nM, 15 min, cumulative histogram) was “approximately 80%”. For the same compound, the “effect of extended exposure on CREB phosphorylation” value ([10]; CRF 40 nM, 1 hr) was “apparent desensitization”, the “CREB phosphorylation, NAc enriched culture” value ([10]; NAc "enriched" cultures, data not shown) was “similarly robust increases in CREB phosphorylation” and the EC50 ([10]; cultured striatal neurons from 1- to 2-day old rat pups, 8-10 d.i.v., nuclear pCREB (Ser133) immunofluorescence, 15 min, nonlinear curve fit) was 0.3 nM. For the same compound, the “CREB phosphorylation, dorsal striatum enriched culture” value ([10]; dorsal striatum "enriched" cultures, data not shown) was “similarly robust increases in CREB phosphorylation” and the “CREB phosphorylation in mCherry-transfected neurons” value ([10]; neurons transfected with mCherry alone) was “robust CRF-induced CREB phosphorylation”.
In the case of pertussis toxin [PTX], the “effect on CRF-induced CREB phosphorylation” value ([1]; PTX overnight (18 hr) pretreatment, 0.5 µng/µL, 500 ng/mL) is reported as “did not alter CRF-mediated CREB phosphorylation; also recorded: did not affect CRF-induced pCREB”.
